In the NIST ThermoML archive (doi:10.1016/j.fluid.2006.03.020):

Test: excess molar enthalpy (molar enthalpy of mixing); xn = mol fraction of the nth substance listed
Conditions: 303.15 K, 101 kPa, Liquid, Flow calorimetry

C1COCCO1 [1,4-dioxane] + CCCCCCCC
Conditions	excess molar enthalpy [kJ/mol]
x1 = 0.0577	0.412
x1 = 0.1002	0.675
x1 = 0.151	0.956
x1 = 0.2075	1.22
x1 = 0.2491	1.4
x1 = 0.3048	1.57
x1 = 0.3676	1.739
x1 = 0.4092	1.806
x1 = 0.4536	1.874
x1 = 0.507	1.892
x1 = 0.5583	1.895
x1 = 0.6089	1.833
x1 = 0.6599	1.755
x1 = 0.6959	1.674
x1 = 0.7553	1.506
x1 = 0.8045	1.31
x1 = 0.8586	1.04
x1 = 0.8997	0.802
x1 = 0.9352	0.548

C1COCCO1 [1,4-dioxane] + C1CCCCC1
Conditions	excess molar enthalpy [kJ/mol]
x1 = 0.0547	0.37
x1 = 0.153	0.883
x1 = 0.2558	1.26
x1 = 0.3916	1.537
x1 = 0.5072	1.59
x1 = 0.6511	1.45
x1 = 0.7029	1.32
x1 = 0.7606	1.12
x1 = 0.8499	0.79
x1 = 0.9288	0.406

CCCCCCCC [octane] + C1CCCCC1
Conditions	excess molar enthalpy [kJ/mol]
x1 = 0.0275	0.052
x1 = 0.0507	0.08
x1 = 0.0896	0.126
x1 = 0.1482	0.173
x1 = 0.1912	0.206
x1 = 0.2487	0.23
x1 = 0.2922	0.246
x1 = 0.3709	0.259
x1 = 0.4676	0.258
x1 = 0.5738	0.24
x1 = 0.642	0.216
x1 = 0.7256	0.18
x1 = 0.79	0.149
x1 = 0.8267	0.124
x1 = 0.869	0.099
x1 = 0.8976	0.075
